Assay results: patent publication US20030203969A1, “Pharmaceutically active aromatic guanylhydrazones” (priority 2000, published 2003)

Assays:
VZV strain ELLEN = experiment: VZV plaque reduction assay in MRC-5 cells; assay type: cell-based, Varicella-zoster virus
Description: MRC-5 (human embryonic lung fibroblast) cells (ATCC Cat. No. CCL-171) are seeded in 24 well plates using Eagle's Minimum Essential Medium (EMEM) supplemented with 10% heat-inactivated fetal bovine serum (FBS), L-glutamine, sodium pyruvate, non-essential amino acids, penicillin, and streptomycin. The plates are then incubated overnight at 37° C. and 5% CO2. The following day, media is aspirated and approximately 50-100 pfu (plaque forming units) of VZV strain ELLEN is added to the wells of each plate in a volume of 200 μl of assay media (EMEM supplemented with 5% heat-inactivated FBS, L-glutamine, sodium pyruvate, non-essential amino acids, penicillin, and streptomycin). The remaining wells of each plate serve as cellular control wells and receive 200 μl of assay media without virus. The virus is allowed to adsorb onto the cells for 1 hr at 37° C. and 5% CO2. Two dilutions of each test drug are prepared by diluting them in assay media containing 0.5% Methylcellulose. After the incubation period, 1 ml of each drug dilution is added to triplicate wells of a plate. Assay media (without drug) containing 0.5% Methylcellulose is added to the three cell control wells and to three virus control wells on each plate. The plates are incubated for 9-12 days to allow for plaque formation. […]

HepG2 cells = assay type: cell-based, human; settings: Lamivudine-resistant HBV experiment, read-out: TC50 (the source's name)
Description: Human HepG2-2.2.15 cells (ATCC Cat. No. CRL-11997), chronically infected with HBV, are plated in 96-well microtiter plates in DMEM medium supplemented with fetal bovine serum. After incubation at 37° C. in a humidified, 5% CO2 environment for 16-24 hours, the monolayer of HepG2-2.2.15 cells is washed and the medium is replaced with complete medium containing various concentrations of test compound. Every three days during the experiments, the culture medium is replaced with fresh medium containing the appropriately diluted test compound. Six days following the initial administration of the test compound, the cell culture supernatant is collected and clarified by centrifugation. The cell viability is evaluated by a dye uptake procedure (Promega's Cell Titer Aqueous One Solution). Virion-associated HBV DNA present in the tissue culture supernatant is amplified employing PCR technology using primer pairs derived from the HBV strain ayw. Subsequently, the PCR-amplified HBV DNA is detected in real-time by monitoring increases in fluorescence signals that result from exonucleolytic degradation of a quenched fluorescent probe molecule following hybridization of the probe to the amplified HBV DNA (TaqMan; Perkin-Elmer).
The same type of experiments was additionally performed with a mutant, Lamivudine-resistant HBV strain, which was transfected into HepG2 cells.

[1] = tested on: omni-drug-resistant HIV-1; experiment: Inhibition of omni-drug-resistant HIV-1 in PM1 cells (p24); assay type: cell-based
Description: PM1 cells were infected with an “omni-drug-resistant HIV-1” (recombinant HIV-1 NL4-3 in which the Protease gene and the 5′ part of the Reverse Transcriptase gene was replaced by the corresponding sequences from a omni-drug-resistant clinical isolate, resistant to all currently available anti-HIV drugs. Infected cells were incubated with Compound No. 4 at a concentration of 250, 500 and 1000 nM or DMSO (control). The culture medium was changed every third day. Cell viability (Trypan-blue staining), cell counts and p24 levels were determined at day 6 and 12.
At day 12 of infection, the virus replicated vigorously in untreated cultures. Numbers describe percent inhibition of HIV-1 replication as compared to control experiments.

NNRTI-resistant HIV-1 = experiment: Inhibition of multiple anti-retroviral drug resistant HIV-1 strains: NNRTI-resistant; assay type: cell-based
Description: (§1) In addition, various different “types” of multiple anti-retroviral drug resistant HIV-1 strains were also tested: […]

[2] = tested on: NRTI + PI-resistant HIV-1; experiment: Inhibition of multiple anti-retroviral drug resistant HIV-1 strains: NRTI + PI-resistant; assay type: cell-based
Description: as §1

[3] = target: T1, deoxyhypusine synthase (DHS) (Homo sapiens, UniProt P49366); experiment: In vitro DHS screening assay (hypusine formation on eIF-5A); assay type: biochemical
T1 construct: made in house; host or cells: E. coli BL21 (DE3), pGex vector
T1 sequence (P49366 1-369): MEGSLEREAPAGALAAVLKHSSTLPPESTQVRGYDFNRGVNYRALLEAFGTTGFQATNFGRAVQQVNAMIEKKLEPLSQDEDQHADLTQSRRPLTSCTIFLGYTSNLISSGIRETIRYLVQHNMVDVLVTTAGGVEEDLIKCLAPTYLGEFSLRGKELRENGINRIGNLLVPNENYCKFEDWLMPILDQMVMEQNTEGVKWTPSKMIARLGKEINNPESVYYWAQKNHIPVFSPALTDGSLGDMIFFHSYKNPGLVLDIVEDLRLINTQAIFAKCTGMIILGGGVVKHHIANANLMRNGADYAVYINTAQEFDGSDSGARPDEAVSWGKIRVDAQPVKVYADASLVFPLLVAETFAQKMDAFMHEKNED

CC(=NNC(=N)N)c1cc(NC(=O)CCCCCCCCC(=O)Nc2cc(C(C)=NNC(=N)N)cc(C(C)=NNC(=N)N)c2)cc(C(C)=NNC(=N)N)c1 [Compound 4, N,N′-bis (3,5-diacetylphenyl) decane diamide tetrakis (amidinohydrazone)]
IC50 (VZV strain ELLEN; MRC-5 cells newly infected with VZV): 4.69 µM | Comments (VZV strain ELLEN; VZV, MRC-5 cells): Significant activity | CC50 (HepG2 cells): 24.7 µM | percent inhibition of HIV-1 replication as compared to control ([1]; omni-drug-resistant HIV-1, 0.25 μM, d6): 15% | percent inhibition of HIV-1 replication as compared to control ([1]; omni-drug-resistant HIV-1, 0.25 μM, d12): 64% | percent inhibition of HIV-1 replication as compared to control ([1]; omni-drug-resistant HIV-1, 0.5 μM, d6): 30% | percent inhibition of HIV-1 replication as compared to control ([1]; omni-drug-resistant HIV-1, 0.5 μM, d12): 95% | percent inhibition of HIV-1 replication as compared to control ([1]; omni-drug-resistant HIV-1, 1.0 μM, d6): 58% | percent inhibition of HIV-1 replication as compared to control ([1]; omni-drug-resistant HIV-1, 1.0 μM, d12): 97% | [%] inhibition of virus replication (NNRTI-resistant HIV-1; NNRTI-resistant HIV-1, 0.5 μM): 71% | [%] inhibition of virus replication (NNRTI-resistant HIV-1; NNRTI-resistant HIV-1, 1.0 μM): 82% | [%] inhibition of virus replication ([2]; NRTI + PI-resistant HIV-1, 0.5 μM): 68% | [%] inhibition of virus replication ([2]; NRTI + PI-resistant HIV-1, 1.0 μM): 73% | inhibition of the hypusine formation on the elF-5A protein [3]: potent inhibitors
